Data: patent US12667551B2, “Renal function maintenance and protection agent, and method for evaluating effect thereof” (MARUHA NICHIRO CORPORATION, priority 2018, dated 2026)
Marks after values point to notes of the source that are not given here.

Assays:
[1] = test system: diabetic disease model animals; conditions: Non-Patent Document 4; cited from earlier work
[2] = test system: spontaneously hypertensive stroke-prone rats (SHR-SP/Izm); assay: Kidney pathology scores GSI and AIS (Example 3); type: in vivo, rat; conditions: H-DHA-TG 2,000, DHA-EE 1,303, Tri-DHA-TG 1,246 mg/kg once a day gavage, 4 weeks, group average
Protocol: (§1) Spontaneously hypertensive stroke-prone rats (SHR-SP/Izm, Nihon SLC Co., Ltd.) aged 4 weeks were acclimatized for 1 week, then fed an 8-mass % salt-containing solid diet (AlN-93G) and a drinking water freely, and once a day, DHA highly enriched triglycerides (H-DHA-TG), esters (DHA-EE) used in Example 2, and triglycerides (Tri-DHA-TG) prepared in Example 2 were administered by gavage with the amounts shown in Table 3,
The kidneys were fixed in formalin solution, and then each staining was performed by PAS-staining, Sirius-Red-staining, and immunostaining for α-SMA, CD68, Desmin, and Kim−1 for pathological observations.
For PAS-staining, along with pathomorphological observations, glomerulosclerosis score (GSI), renal artery injury score (AIS) were performed with reference to Clinical and Experimental Hypertension, 2012, 34 (2) 99-106.

[3] = test system: spontaneously hypertensive stroke-prone rats (SHR-SP/Izm); assay: Urine metabolite analysis by NMR (Example 3); type: in vivo, rat; conditions: for Urine metabolic concentration: 4-Hydroxyphenylacetate / Urine metabolic concentration: Glycine / Urine metabolic concentration: N-Phenylacetylglycine / Urine metabolic concentration: Creatinine: Example 3, H-DHA-TG 2,000, DHA-EE 1,303, Tri-DHA-TG 1,246 mg/kg, 4 weeks; for Urine metabolic concentration: Creatinine: normaliser
Protocol: as §1
(§2) In addition, urine samples were collected before the start of administration and after 4 weeks of administration under fasting for 16 hours, and biochemical tests and metabolite analysis by NMR were performed by conventional methods.

[4] = test system: spontaneously hypertensive stroke-prone rats (SHR-SP/Izm); assay: Serum and urine biochemical tests, comparison of DHA-bound TG and EE (Example 3); type: in vivo, rat; conditions: H-DHA-TG 2,000, DHA-EE 1,303, Tri-DHA-TG 1,246 mg/kg once a day gavage, 4 weeks; for Urine Alb / Urine Alb/CRE / Urine TP: median
Protocol: as §1, §2
At the end of the test, blood was collected from the abdominal vena cava and necropsied.
Biochemical metabolite analysis was performed on the obtained serum by conventional methods.

[5] = test system: salt-sensitive spontaneously hypertensive stroke-prone rats; conditions: Non-Patent Documents 1 and 2; cited from earlier work

Compound | Blood glucose levels [1] | AIS (renal artery injury score) [2] | GSI (glomerulosclerosis score) [2] | Significant differences of urine metabolites vs control, triglycerides compared with esters ([3]; Example 3, Table 6) | Urine metabolic concentration: 4-Hydroxyphenylacetate [3] | Urine metabolic concentration: Glycine [3] | Urine metabolic concentration: N-Phenylacetylglycine [3] | Urine metabolic concentration: Creatinine [3] | Serum BUN [4] [mg/dL] | Serum CRE [4] [mg/dL] | Urine CRE [4] [mg/16 h] | Urine Alb [4] | Urine Alb/CRE [4] | Urine TP [4] | Renal function protection [5]
triglycerides of EPA [EPA-TAG] | no effect was observed |  |  |  |  |  |  |  |  |  |  |  |  |  | 
CC/C=C\C/C=C\C/C=C\C/C=C\C/C=C\C/C=C\CCC(=O)OCC(COC(=O)CC/C=C\C/C=C\C/C=C\C/C=C\C/C=C\C/C=C\CC)OC(=O)CC/C=C\C/C=C\C/C=C\C/C=C\C/C=C\C/C=C\CC [Tri-DHA-TG, tridocosahexaenoyl triglyceride] |  | 21.1 | 11.4 | more significant differences | 0.12 ± 0.04 (μM)/Cre(μM) | 0.19 ± 0.03 (μM)/Cre(μM) | 0.42 ± 0.08 (μM)/Cre(μM) | 1.00 ± 0.00 (μM)/Cre(μM) | 25.1 ± 4.2 | 0.28 ± 0.06 | 3.02 ± 0.47 | 544.95^† ug/16 h | 1.85^† | 3.2^† mg/16 h | 
CC/C=C\C/C=C\C/C=C\C/C=C\C/C=C\C/C=C\CCC(=O)OCC [DHA-EE, ethyl esters of docosahexaenoic acid] | lowered blood glucose levels to the same extent as control | 19.4 | 7.1 |  | 0.09 ± 0.03 (μM)/Cre(μM) | 0.18 ± 0.04 (μM)/Cre(μM) | 0.34 ± 0.09 (μM)/Cre(μM) | 1.00 ± 0.00 (μM)/Cre(μM) | 25.1 ± 3.7 | 0.28 ± 0.04 | 3.23 ± 0.59 | 1054 ug/16 h | 4.44^† | 3.2 mg/16 h | renal function was protected
triglycerides of DHA [DHA-TAG] | lowered blood glucose levels to the same extent as control |  |  |  |  |  |  |  |  |  |  |  |  |  | 
CC/C=C\C/C=C\C/C=C\C/C=C\C/C=C\CCCC(=O)OCC [EPA-EE, ethyl esters of eicosapentaenoic acid] | no effect was observed |  |  |  |  |  |  |  |  |  |  |  |  |  | renal function was protected
